Results as given in PubChem BioAssay AID540349 (The Scripps Research Institute Molecular Screening Center, 2011).
The source made the active and inactive calls. How the calls were made is not given here.

Target: Sphingosine 1-phosphate receptor 3 (Homo sapiens) (UniProt Q99500)
Assay: S1P3 receptor agonists, SAR follow-up, cell-based, fluorescence, synthesized compounds (AID 540349)
Conditions: S1P3-expressing cells, agonist fluorescence read-out

Sequence of Sphingosine 1-phosphate receptor 3 (Homo sapiens) (Q99500 whole entry, looked up): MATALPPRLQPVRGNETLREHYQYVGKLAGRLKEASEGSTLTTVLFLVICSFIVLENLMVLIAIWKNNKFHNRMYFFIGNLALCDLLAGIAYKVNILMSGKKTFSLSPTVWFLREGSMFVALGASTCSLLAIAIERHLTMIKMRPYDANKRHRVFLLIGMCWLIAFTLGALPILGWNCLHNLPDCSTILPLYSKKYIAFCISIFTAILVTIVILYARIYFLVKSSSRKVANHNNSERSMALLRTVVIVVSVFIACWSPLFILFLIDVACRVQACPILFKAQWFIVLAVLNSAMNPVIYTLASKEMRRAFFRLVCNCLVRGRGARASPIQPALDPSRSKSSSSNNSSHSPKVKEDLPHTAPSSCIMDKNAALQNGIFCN

Compound	EC50 (run 1)	EC50 (run 2)	EC50 (run 3)
O=C(c1cc(-c2ccccc2)on1)N(C1CCCCC1)C1CCCC1	1550 nM	519 nM	472 nM
COc1ccc(N(Cc2ccccc2)C(=O)c2cc(C3CC3)on2)cc1	> 10000 nM (inactive)	inactive	inactive
CCCc1cc(C(=O)N(C2CCCCC2)C2CCCC2)no1	> 10000 nM (inactive)	inactive	5670 nM
O=C(NC1CCCCC1)c1cc(C2CC2)on1	> 10000 nM (inactive)	> 50000 nM (inactive)	> 50000 nM (inactive)
CC(C)c1cc(C(=O)N(C2CCCCC2)C2CCCCC2)no1	1410 nM	799 nM	668 nM
CC1CCCCC1N(C(=O)c1cc(C2CC2)on1)C1CCOCC1 (configuration not stated)	> 10000 nM (inactive)	2230 nM	3410 nM
O=C(c1cc(C2CC2)on1)N(Cc1ccccc1)c1ccccc1	7620 nM	8130 nM	5250 nM
O=C(c1cc(C2CC2)on1)N(C1CCCCC1)C1CCCC1	2770 nM	1220 nM	1060 nM
CC1CCCCC1N(C(=O)c1cc(C2CC2)on1)C1CCCCC1C (configuration not stated)	280 nM	126 nM	200 nM
O=C(c1cc(C2CC2)on1)N(Cc1ccccc1)Cc1ccccc1	> 10000 nM (inactive)	> 50000 nM (inactive)	> 50000 nM (inactive)
COc1ccc(-c2cc(C(=O)N(C3CCCCC3)C3CCCCC3)no2)cc1	583 nM	173 nM	212 nM
CCN(CC)C(=O)c1cc(C2CC2)on1	> 10000 nM (inactive)	> 50000 nM (inactive)	> 50000 nM (inactive)
CCOc1ccc(-c2nc(C(=O)N(C3CCCCC3)C3CCCCC3)co2)cc1OCC	> 10000 nM (inactive)	8010 nM	8130 nM

Further lines, results first:

EC50 (run 1)	EC50 (run 2)	EC50 (run 3)	Compound
216 nM	35.2 nM	58.9 nM	O=C(c1cc(-c2ccccc2)on1)N(C1CCCCC1)C1CCCCC1
> 10000 nM (inactive)	> 50000 nM (inactive)	> 50000 nM (inactive)	O=C(c1coc(C2CC2)n1)N(C1CCCCC1)C1CCCCC1
> 10000 nM (inactive)	> 50000 nM (inactive)	> 50000 nM (inactive)	CCCc1cc(C(=O)NC2CCCCC2)no1
349 nM	326 nM	337 nM	CC1CCCCC1N(C(=O)c1cc(C2CC2)on1)C1CCCCC1 (configuration not stated)
2610 nM	1080 nM	1530 nM	CC1CCCCC1N(C(=O)c1cc(C2CC2)on1)C1CCCC1 (configuration not stated)
3910 nM	2390 nM	1960 nM	O=C(c1cc(C2CC2)on1)N(C1CCCCCC1)C1CCCC1
> 10000 nM (inactive)	> 50000 nM (inactive)	> 50000 nM (inactive)	O=C(c1noc2ccccc12)N(C1CCCCC1)C1CCCCC1
> 10000 nM (inactive)	> 50000 nM (inactive)	> 50000 nM (inactive)	COc1ccc(-c2cc(C(=O)N(C3CCCCC3)C3CCCCC3)no2)cc1OC
6890 nM	7540 nM	5230 nM	O=C(c1cc(C2CC2)on1)N(Cc1ccccc1)c1ccccn1
> 10000 nM (inactive)	> 50000 nM (inactive)	> 50000 nM (inactive)	O=C(c1ccc(C2CC2)o1)N(C1CCCCC1)C1CCCCC1
495 nM	335 nM	471 nM	CCCc1cc(C(=O)N(C2CCCCC2)C2CCCCC2)no1
3830 nM	3730 nM	3050 nM	O=C(c1cc(C2CC2)on1)N(C1CCCCC1)C1CCOCC1
2080 nM	785 nM	1260 nM	CC(C)Cc1cc(C(=O)N(C2CCCCC2)C2CCCCC2)no1
72.3 nM	132 nM	112 nM	O=C(c1cc(C2CC2)on1)N(C1CCCCC1)C1CCCCC1
6400 nM	2160 nM	1730 nM	O=C(c1cc(C2CC2)on1)N(CC1CCCCC1)C1CCCCC1
842 nM	285 nM	478 nM	CC1CCCCC1N(C(=O)c1cc(C2CC2)on1)C1CCCCCC1 (configuration not stated)
